Source: PubChem BioAssay (NCI)
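Growth conditions: 96-well plates. Treatment: test compound, 48 hours, 5 concentrations. Analysis: linear interpolation between bracketing concentrations; unreached endpoints set to highest concentration. The concentration for full growth arrest is given as TGI.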

Tests used:
Assay in all cases: NCI-60 cell line screen, 48 h
DLD-1 colon = system: DLD-1 colon
HOP-18 NSCLC = system: HOP-18 NSCLC
KM20L2 colon = system: KM20L2 colon
RXF-631 renal = system: RXF-631 renal
SNB-78 CNS = system: SNB-78 CNS
XF 498 CNS = system: XF 498 CNS

Structure (SMILES) | TGI (DLD-1 colon) | TGI (HOP-18 NSCLC) | TGI (KM20L2 colon) | TGI (RXF-631 renal) | TGI (SNB-78 CNS) | TGI (XF 498 CNS)
CCN(CC)CCCNc1ccc2nnn3c4ccc(O)cc4c(=O)c1c23 | 19 µM | 29.8 µM | 18.7 µM | 17.4 µM | 32.5 µM | 28.9 µM
C=C1C[C@]23C[C@@]1(O)CC[C@H]2[C@@]12C=C[C@H](O)[C@@](C)(C(=O)O1)[C@H]2[C@@H]3C(=O)O | > 100 µM |  | > 100 µM |  | > 100 µM | > 100 µM
NC(=O)COc1ccccc1 | > 100 µM |  | > 100 µM | > 100 µM | > 100 µM | > 100 µM
O=[As](O)(O)c1cc(N=Nc2ccc(-c3ccc(N=Nc4cc([As](=O)(O)O)c(O)cc4O)cc3)cc2)c(O)cc1O | > 59.2 µM | > 100 µM | > 100 µM | > 100 µM | > 100 µM | 
